Patent US20260274829A1, “NEW E3 UBIQUITIN LIGASE LIGAND, PROTEIN DEGRADATION AGENT AND USE THEREOF” (GLUETACS THERAPEUTICS (SHANGHAI) CO., LTD., priority 2023, published 2026)

Experiments:
Type in all cases: cell-based
IKZF2 = molecular target: T1, IKZF2 (Homo sapiens, UniProt Q96SW2+Q9UKS7); assay: Western blot degradation of IKZF2 in hPBMC
T1 construct: endogenous in cells; host or cells: hPBMC
Protocol: (§1) Conventional Western blot assay was performed to evaluate the effects of the compounds of the present disclosure on the expression of target proteins in cells.
(§2) • (1) Cell Seeding and Protein Harvesting: The selected cells were processed according to the cell seeding procedure and protein harvesting procedure in Table III-2.
(§3) • (2) To the collected supernatant, 5×SDS sample loading buffer was added, followed by denaturation at 95° C. for 5 minutes. The denatured samples were then separated by SDS-PAGE electrophoresis on a polyacrylamide gel. Proteins were transferred to a nitrocellulose membrane ([…] NC membrane), blocked with blocking buffer at room temperature for 1 hour, and subjected to antibody incubation and development procedures according to the antibody manufacturer's instructions (Cell Signaling Technology).
(§4) Half-Maximal Degradation Concentration value (the drug concentration required for degrading proteins by 50%, abbreviated as DC50) reads method: comparing the grayscale values of Western blot bands from drug-treated samples with those from blank DMSO-treated controls, and identifying the drug concentration range at which the grayscale value is half that of the DMSO-treated control bands.
(§5) DC50 values can be calculated using ImageJ software to measure grayscale values of Western blot bands from drug-treated samples. The concentration-response curve is fitted to estimate the drug concentration corresponding to half the grayscale value.
(§6) Target protein remaining (0%) refers to the percentage of target protein remaining in hPBMC cells after treatment with protein degrader compounds.
(§7) Calculation method for target protein remaining (0%): Use ImageJ software to measure grayscale values of Western blot bands from drug (protein degrader)-treated samples. The grayscale value of drug-treated bands is divided by that of internal control protein bands, and the resulting quotient is normalized to obtain the relative percentage of remaining target protein after protein degrader treatment.

IKZF1 = molecular target: T2, IKZF1 (Homo sapiens, UniProt Q13422+Q96SW2); assay: Western blot degradation of IKZF1 in hPBMC
T2 construct: endogenous in cells; host or cells: hPBMC
T2 sequence (Q13422 whole entry): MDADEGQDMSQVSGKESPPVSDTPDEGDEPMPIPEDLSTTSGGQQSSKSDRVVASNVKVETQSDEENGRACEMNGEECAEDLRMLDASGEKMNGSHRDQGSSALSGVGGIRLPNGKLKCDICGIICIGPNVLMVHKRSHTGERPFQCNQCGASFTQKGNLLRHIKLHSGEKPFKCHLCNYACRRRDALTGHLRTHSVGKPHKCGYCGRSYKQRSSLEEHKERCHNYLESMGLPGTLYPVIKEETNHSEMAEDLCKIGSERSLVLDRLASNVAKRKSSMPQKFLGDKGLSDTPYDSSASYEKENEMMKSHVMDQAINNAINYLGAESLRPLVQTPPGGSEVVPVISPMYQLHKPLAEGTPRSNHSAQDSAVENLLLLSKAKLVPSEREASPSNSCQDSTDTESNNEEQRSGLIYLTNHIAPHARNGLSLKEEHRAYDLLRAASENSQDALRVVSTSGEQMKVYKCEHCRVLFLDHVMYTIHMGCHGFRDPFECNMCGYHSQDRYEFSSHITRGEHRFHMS
T2 sequence (Q96SW2 whole entry): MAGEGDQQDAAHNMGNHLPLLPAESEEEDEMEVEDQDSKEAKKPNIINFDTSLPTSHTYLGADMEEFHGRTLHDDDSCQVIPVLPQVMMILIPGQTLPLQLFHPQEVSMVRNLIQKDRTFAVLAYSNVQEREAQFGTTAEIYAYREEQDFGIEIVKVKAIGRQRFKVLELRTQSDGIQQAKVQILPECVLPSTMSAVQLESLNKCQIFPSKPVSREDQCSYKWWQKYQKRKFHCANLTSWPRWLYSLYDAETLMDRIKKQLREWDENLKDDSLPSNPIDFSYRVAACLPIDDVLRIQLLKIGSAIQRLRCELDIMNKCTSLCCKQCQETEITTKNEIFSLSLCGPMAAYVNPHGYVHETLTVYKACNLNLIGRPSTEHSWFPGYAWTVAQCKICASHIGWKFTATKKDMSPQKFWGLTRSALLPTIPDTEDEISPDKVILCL
T2 sequence (Q16531 whole entry partner): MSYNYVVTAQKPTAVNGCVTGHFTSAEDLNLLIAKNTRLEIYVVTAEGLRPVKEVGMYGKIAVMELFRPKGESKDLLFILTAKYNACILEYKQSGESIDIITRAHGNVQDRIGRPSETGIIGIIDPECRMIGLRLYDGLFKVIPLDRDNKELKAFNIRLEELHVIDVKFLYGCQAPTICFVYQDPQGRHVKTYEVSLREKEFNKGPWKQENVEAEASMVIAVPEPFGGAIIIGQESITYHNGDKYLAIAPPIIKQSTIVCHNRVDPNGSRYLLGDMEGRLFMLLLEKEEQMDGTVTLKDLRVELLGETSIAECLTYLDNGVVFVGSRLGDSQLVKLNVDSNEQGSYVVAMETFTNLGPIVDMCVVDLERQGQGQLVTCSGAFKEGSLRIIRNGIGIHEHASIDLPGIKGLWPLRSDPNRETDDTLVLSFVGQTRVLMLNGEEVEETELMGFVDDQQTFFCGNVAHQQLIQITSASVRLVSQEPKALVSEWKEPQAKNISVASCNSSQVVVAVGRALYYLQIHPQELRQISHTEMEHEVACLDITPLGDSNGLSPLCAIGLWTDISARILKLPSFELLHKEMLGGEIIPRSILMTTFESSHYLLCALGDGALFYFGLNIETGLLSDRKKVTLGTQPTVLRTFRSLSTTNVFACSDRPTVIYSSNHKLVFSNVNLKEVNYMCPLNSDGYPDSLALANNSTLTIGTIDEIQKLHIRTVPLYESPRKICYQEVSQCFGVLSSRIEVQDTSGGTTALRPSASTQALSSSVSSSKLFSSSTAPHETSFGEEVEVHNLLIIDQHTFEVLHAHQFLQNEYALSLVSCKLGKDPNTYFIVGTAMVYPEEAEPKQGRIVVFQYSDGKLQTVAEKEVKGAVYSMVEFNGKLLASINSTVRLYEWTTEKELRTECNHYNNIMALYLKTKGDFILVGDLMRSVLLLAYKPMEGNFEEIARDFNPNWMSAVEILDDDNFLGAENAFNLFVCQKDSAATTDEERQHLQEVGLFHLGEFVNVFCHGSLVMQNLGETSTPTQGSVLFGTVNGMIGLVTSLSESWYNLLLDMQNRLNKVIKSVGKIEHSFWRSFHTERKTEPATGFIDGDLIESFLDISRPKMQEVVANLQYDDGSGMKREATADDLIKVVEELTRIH
Protocol: as §1, §2, §3, §4, §5, §6, §7

GSPT1 = molecular target: T3, GSPT1 (Homo sapiens, UniProt P15170+Q96SW2); assay: Western blot degradation of GSPT1 in hPBMC
T3 construct: endogenous in cells; host or cells: hPBMC
T3 sequence (P15170 whole entry): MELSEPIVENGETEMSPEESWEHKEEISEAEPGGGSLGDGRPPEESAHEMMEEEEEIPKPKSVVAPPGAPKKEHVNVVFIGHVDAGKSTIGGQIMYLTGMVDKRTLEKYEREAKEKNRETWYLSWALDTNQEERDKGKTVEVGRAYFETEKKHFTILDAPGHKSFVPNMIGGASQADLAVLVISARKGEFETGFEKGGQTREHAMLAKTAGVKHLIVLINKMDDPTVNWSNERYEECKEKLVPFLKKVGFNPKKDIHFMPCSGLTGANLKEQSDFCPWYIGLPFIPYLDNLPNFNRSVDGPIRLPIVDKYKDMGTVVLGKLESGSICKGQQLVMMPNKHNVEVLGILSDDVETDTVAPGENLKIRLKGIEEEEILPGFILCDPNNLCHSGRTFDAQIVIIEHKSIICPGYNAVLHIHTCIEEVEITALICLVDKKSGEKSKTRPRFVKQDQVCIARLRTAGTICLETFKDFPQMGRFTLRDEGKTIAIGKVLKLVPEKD
T3 sequence (Q96SW2 whole entry): as the sequence (Q96SW2 whole entry) above
T3 sequence (Q16531 whole entry partner): as the sequence (Q16531 whole entry partner) above
Protocol: as §1, §2, §3, §4, §5, §6, §7

CK1a = molecular target: T4, CK1a (Homo sapiens, UniProt P48729+Q96SW2); assay: Western blot degradation of CK1a in hPBMC
T4 construct: endogenous in cells; host or cells: hPBMC
T4 sequence (P48729 whole entry): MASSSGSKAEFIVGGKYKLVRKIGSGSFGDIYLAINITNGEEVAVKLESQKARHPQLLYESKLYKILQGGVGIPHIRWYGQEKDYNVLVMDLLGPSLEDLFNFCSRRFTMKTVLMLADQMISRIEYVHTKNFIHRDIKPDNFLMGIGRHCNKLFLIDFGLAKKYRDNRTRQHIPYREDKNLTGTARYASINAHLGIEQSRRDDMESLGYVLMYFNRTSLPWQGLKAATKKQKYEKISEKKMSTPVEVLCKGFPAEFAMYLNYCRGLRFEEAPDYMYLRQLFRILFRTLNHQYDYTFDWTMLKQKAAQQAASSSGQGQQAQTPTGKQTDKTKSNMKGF
T4 sequence (Q96SW2 whole entry): as the sequence (Q96SW2 whole entry) above
T4 sequence (Q16531 whole entry partner): as the sequence (Q16531 whole entry partner) above
Protocol: as §1, §2, §3, §4, §5, §6, §7

IKZF3 = molecular target: T5, IKZF3 (Homo sapiens, UniProt Q96SW2+Q9UKT9); assay: Western blot degradation of IKZF3 in hPBMC
T5 construct: endogenous in cells; host or cells: hPBMC
Protocol: as §1, §2, §3, §4, §5, §6, §7

WEE1 = molecular target: T6, WEE1 (Homo sapiens, UniProt P30291+Q96SW2); assay: Western blot degradation of WEE1 in hPBMC
T6 construct: endogenous in cells; host or cells: hPBMC
T6 sequence (P30291 whole entry): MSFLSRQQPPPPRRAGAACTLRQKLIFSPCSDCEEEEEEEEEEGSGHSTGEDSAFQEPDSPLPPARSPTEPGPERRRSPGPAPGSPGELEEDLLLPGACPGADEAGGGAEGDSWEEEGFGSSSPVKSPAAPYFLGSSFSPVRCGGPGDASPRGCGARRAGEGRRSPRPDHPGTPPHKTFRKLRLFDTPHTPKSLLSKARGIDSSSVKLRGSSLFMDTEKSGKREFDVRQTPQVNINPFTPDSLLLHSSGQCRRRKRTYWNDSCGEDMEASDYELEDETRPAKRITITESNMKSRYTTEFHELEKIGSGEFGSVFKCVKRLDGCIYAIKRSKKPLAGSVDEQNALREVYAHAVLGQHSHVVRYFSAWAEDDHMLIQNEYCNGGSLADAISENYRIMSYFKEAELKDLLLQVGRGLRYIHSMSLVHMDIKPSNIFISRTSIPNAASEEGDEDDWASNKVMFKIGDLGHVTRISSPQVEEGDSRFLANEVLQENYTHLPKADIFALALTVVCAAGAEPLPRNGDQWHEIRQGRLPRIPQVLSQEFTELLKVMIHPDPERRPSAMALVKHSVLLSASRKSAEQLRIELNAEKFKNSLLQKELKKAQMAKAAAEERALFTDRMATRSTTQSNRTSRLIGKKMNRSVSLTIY
T6 sequence (Q96SW2 whole entry): as the sequence (Q96SW2 whole entry) above
T6 sequence (Q16531 whole entry partner): as the sequence (Q16531 whole entry partner) above
Protocol: as §1, §2, §3, §4, §5, §6, §7

T1 sequence (Q9UKS7 whole entry): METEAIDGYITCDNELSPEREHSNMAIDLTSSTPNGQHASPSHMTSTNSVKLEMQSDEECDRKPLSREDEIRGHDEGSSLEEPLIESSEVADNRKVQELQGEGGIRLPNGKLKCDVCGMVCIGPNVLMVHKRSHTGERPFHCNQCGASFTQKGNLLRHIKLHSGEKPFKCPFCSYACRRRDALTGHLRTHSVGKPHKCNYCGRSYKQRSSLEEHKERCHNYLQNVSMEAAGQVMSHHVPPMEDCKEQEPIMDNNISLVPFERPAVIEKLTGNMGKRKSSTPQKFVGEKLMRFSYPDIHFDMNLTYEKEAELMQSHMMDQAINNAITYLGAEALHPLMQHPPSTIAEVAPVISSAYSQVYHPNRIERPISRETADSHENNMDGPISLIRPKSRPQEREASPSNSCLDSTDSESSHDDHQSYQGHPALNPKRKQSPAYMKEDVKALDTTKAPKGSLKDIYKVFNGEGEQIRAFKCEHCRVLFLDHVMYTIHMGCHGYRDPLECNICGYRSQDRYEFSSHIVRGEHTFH
T1 sequence (Q96SW2 whole entry): as the sequence (Q96SW2 whole entry) above
T1 sequence (Q16531 whole entry partner): as the sequence (Q16531 whole entry partner) above

Row | Structure (SMILES) | Degradation of substrate protein IKZF2 (substrate protein remaining %) (IKZF2) | Degradation of substrate protein IKZF1 (substrate protein remaining %) (IKZF1) | Degradation of substrate protein GSPT1 (substrate protein remaining %) (GSPT1) | Degradation of substrate protein CK1a (substrate protein remaining %) (CK1a) | Degradation of substrate protein IKZF3 (substrate protein remaining %) (IKZF3) | Degradation of substrate protein WEE1 (substrate protein remaining %) (WEE1)
1 | O=C1CCC(c2cc(CO)ccn2)C(=O)N1 (stereo not drawn) [GT-07050, 3-(4-(hydroxymethyl)pyridin-2-yl)piperidine-2,6-dione] | B (B is defined as substrate protein remaining % > 80%) | A (A is defined as 0% ≤ substrate protein remaining % ≤ 80%) | A (A is defined as 0% ≤ substrate protein remaining % ≤ 80%) | A (A is defined as 0% ≤ substrate protein remaining % ≤ 80%) | A (A is defined as 0% ≤ substrate protein remaining % ≤ 80%) | B (B is defined as substrate protein remaining % > 80%)
2 | O=C1CCN(c2cnc(F)c(CCl)c2)C(=O)N1 [GT-07633, 1-(5-(chloromethyl)-6-fluoropyridin-3-yl)dihydropyrimidine-2,4(1H,3H)-dione] | A (A is defined as 0% ≤ substrate protein remaining % ≤ 80%) | B (B is defined as substrate protein remaining % > 80%) | B (B is defined as substrate protein remaining % > 80%) | A (A is defined as 0% ≤ substrate protein remaining % ≤ 80%) | B (B is defined as substrate protein remaining % > 80%) | A (A is defined as 0% ≤ substrate protein remaining % ≤ 80%)
3 | O=C1CCN(c2cc(CCl)c(F)cn2)C(=O)N1 [GT-07199, 1-(4-(chloromethyl)-5-fluoropyridin-2-yl)dihydropyrimidine-2,4(1H,3H)-dione] | A (A is defined as 0% ≤ substrate protein remaining % ≤ 80%) | B (B is defined as substrate protein remaining % > 80%) | A (A is defined as 0% ≤ substrate protein remaining % ≤ 80%) | A (A is defined as 0% ≤ substrate protein remaining % ≤ 80%) | A (A is defined as 0% ≤ substrate protein remaining % ≤ 80%) | B (B is defined as substrate protein remaining % > 80%)
4 | CC(C)(C)[Si](C)(C)OCc1cnc(NC2CCC(=O)NC2=O)nc1 (stereo not drawn) [GT-07808, 3-((5-(((tert-butyldimethylsilyl)oxy)methyl)pyrimidin-2-yl)amino)piperidine-2,6-dione] | A (A is defined as 0% ≤ substrate protein remaining % ≤ 80%) | A (A is defined as 0% ≤ substrate protein remaining % ≤ 80%) | B (B is defined as substrate protein remaining % > 80%) | B (B is defined as substrate protein remaining % > 80%) | A (A is defined as 0% ≤ substrate protein remaining % ≤ 80%) | A (A is defined as 0% ≤ substrate protein remaining % ≤ 80%)
5 | NCc1cncc(N2CCC(=O)NC2=O)c1 [GT-07077, 1-(5-(aminomethyl)pyridin-3-yl)dihydropyrimidine-2,4(1H,3H)-dione] | B (B is defined as substrate protein remaining % > 80%) | B (B is defined as substrate protein remaining % > 80%) | A (A is defined as 0% ≤ substrate protein remaining % ≤ 80%) | B (B is defined as substrate protein remaining % > 80%) | B (B is defined as substrate protein remaining % > 80%) | B (B is defined as substrate protein remaining % > 80%)
6 | NCc1ccc(N2CCC(=O)NC2=O)nc1 [GT-07012, 1-(5-(aminomethyl)pyridin-2-yl)dihydropyrimidine-2,4(1H,3H)-dione] | B (B is defined as substrate protein remaining % > 80%) | B (B is defined as substrate protein remaining % > 80%) | A (A is defined as 0% ≤ substrate protein remaining % ≤ 80%) | B (B is defined as substrate protein remaining % > 80%) | A (A is defined as 0% ≤ substrate protein remaining % ≤ 80%) | A (A is defined as 0% ≤ substrate protein remaining % ≤ 80%)
7 | O=Cc1cccnc1NC1CCC(=O)NC1=O (stereo not drawn) [GT-07447, 2-((2,6-dioxopiperidin-3-yl)amino)nicotinaldehyde] | A (A is defined as 0% ≤ substrate protein remaining % ≤ 80%) | A (A is defined as 0% ≤ substrate protein remaining % ≤ 80%) | A (A is defined as 0% ≤ substrate protein remaining % ≤ 80%) | A (A is defined as 0% ≤ substrate protein remaining % ≤ 80%) | A (A is defined as 0% ≤ substrate protein remaining % ≤ 80%) | A (A is defined as 0% ≤ substrate protein remaining % ≤ 80%)
8 | O=C1CCC(Nc2cncc(CO)c2)C(=O)N1 (stereo not drawn) [GT-07448, 3-((5-(hydroxymethyl)pyridin-3-yl)amino)piperidine-2,6-dione] | A (A is defined as 0% ≤ substrate protein remaining % ≤ 80%) | A (A is defined as 0% ≤ substrate protein remaining % ≤ 80%) | A (A is defined as 0% ≤ substrate protein remaining % ≤ 80%) | A (A is defined as 0% ≤ substrate protein remaining % ≤ 80%) | A (A is defined as 0% ≤ substrate protein remaining % ≤ 80%) | A (A is defined as 0% ≤ substrate protein remaining % ≤ 80%)
9 | O=C1CCC(c2cnc(F)c(CO)c2)C(=O)N1 (stereo not drawn) [GT-07074, 3-(6-fluoro-5-(hydroxymethyl)pyridin-3-yl)piperidine-2,6-dione] | A (A is defined as 0% ≤ substrate protein remaining % ≤ 80%) | B (B is defined as substrate protein remaining % > 80%) | A (A is defined as 0% ≤ substrate protein remaining % ≤ 80%) | B (B is defined as substrate protein remaining % > 80%) | A (A is defined as 0% ≤ substrate protein remaining % ≤ 80%) | B (B is defined as substrate protein remaining % > 80%)
10 | O=C1CCN(c2cncc(CCl)n2)C(=O)N1 [GT-07728, 1-(6-(chloromethyl)pyrazin-2-yl)dihydropyrimidine-2,4(1H,3H)-dione] | A (A is defined as 0% ≤ substrate protein remaining % ≤ 80%) | A (A is defined as 0% ≤ substrate protein remaining % ≤ 80%) | B (B is defined as substrate protein remaining % > 80%) | B (B is defined as substrate protein remaining % > 80%) | A (A is defined as 0% ≤ substrate protein remaining % ≤ 80%) | A (A is defined as 0% ≤ substrate protein remaining % ≤ 80%)
11 | O=C1CCN(c2cnc(CCl)c(F)c2)C(=O)N1 [GT-07557, 1-(6-(chloromethyl)-5-fluoropyridin-3-yl)dihydropyrimidine-2,4(1H,3H)-dione] | B (B is defined as substrate protein remaining % > 80%) | A (A is defined as 0% ≤ substrate protein remaining % ≤ 80%) | B (B is defined as substrate protein remaining % > 80%) | A (A is defined as 0% ≤ substrate protein remaining % ≤ 80%) | B (B is defined as substrate protein remaining % > 80%) | A (A is defined as 0% ≤ substrate protein remaining % ≤ 80%)
